In US8198293B2, “Oxymatrine compositions and related methods for treating and preventing chronic infectious diseases” (priority 2008, dated 2012):

What was measured:
[1] = tested on: coxsackievirus B; settings: in vitro, cell cultures; mechanism not defined; cited from earlier work
[2] = tested on: Coxsackievirus B myocarditis; settings: intravenous; chronic Coxsackievirus B myocarditis; 0% in placebo group; cited from earlier work
[3] = tested on: chronic enterovirus infection / chronic fatigue; experiment: Case reports: treatment of chronic fatigue (Examples 2-5); assay type: in vivo, human; settings: Example 5 patient, before oxymatrine
Procedure: A person with episodes of diarrhea while traveling to Tonga developed severe respiratory infection soon thereafter. The symptoms consisted of fevers to 105° F., night sweats, diffuse myalgia, tachycardia, fatigue, sinus congestion and cough, and unresponsiveness to antibiotics. The patient developed profound fatigue thereafter and went on total disability three months after the onset of symptoms. Initial Coxsackie B virus (CBV) 3, CVB4 and echovirus 9 antibody titers were 1:320, 1:160, 1:80 (normal <1:10), respectively.
The patient could not work for the next 18 months. They were started on oxymatrine at 300 mg twice a day (bid). After taking oxymatrine for two months, they were able to take short walks, but still exhausted after one hour of activity requiring five hour naps. At the end of three months of therapy, they started having fevers of 104-105° F. for several days with marked decrease in diffuse myalgia. […] CVB3, CVB4 and echovirus antibody three months after therapy were 1:160, 1:160 and 1:20, respectively.
A person who had recurrent episodes of debilitating fatigue became totally incapacitated after approximately 17 years. […] They went into remission but relapsed nine months later after developing a minor upper respiratory infection. They improved minimally after several months of bed rest, but was barely able to work six hours per day. They had brain fog, myalgia ( 7/10 pain) and was barely able to walk even 1-2 blocks.
Three days after taking oxymatrine at a dose of 300 mg bid, the myalgia intensified ( 10/10 pain), especially one hour after taking the pills. One week after starting oxymatrine, routine laboratory tests including CBC, chemistry panel and creatine phosphokinase (CPK) were normal. They continued having significant fatigue and myalgia for the next three weeks, but the symptoms resolved one week after stopping the medication. Mild increase in myalgia recurred three days after resuming oxymatrine, but resolved after continuing the medication for the next two weeks. The patient felt well at the end of three months with minimal discomfort in a few muscle groups.
Severe myalgia recurred after resuming vigorous exercise for three weeks while taking oxymatrine. They had to stop exercise for the two months allowing cessation of myalgia. After taking oxymatrine for six months, the patient felt well. Over the next six months after stopping the medication, the patient continuously performed heavy physical activities without significant difficulty. After developing another episode of upper respiratory symptoms, their symptoms relapsed. They have resumed oxymatrine but experienced increasing myalgia as the fatigue improved.
A person with a known history of frequent respiratory infections and vasovagal syncope developed respiratory infection, which was followed by bedridden fatigue. Enteroviral protein was detected in the stomach biopsy consistent with chronic enterovirus infection. […] After vigorous exercise, they would still have relapses of bedridden fatigue for one day but continued to work 10-12 hours per day for the next 12 months, walking two miles per day. Laboratory tests were normal while on therapy.
A person developed debilitating fatigue, sore throat, oral ulcers, vertigo, headaches and cognitive dysfunction two months after having a flu-like illness. […] Approximately four years later, the patient started taking oxymatrine. After an initial increase of gastrointestinal symptoms for the first two weeks, the patient tolerated 500 mg per day of oxymatrine.
The symptoms continued for two weeks and resolved after stopping oxymatrine. […] They continued to improve for 12 months after taking the medication.

[4] = tested on: Mycobacterium avium complex (MAC); experiment: Case report: Mycobacterium avium complex infection of the lung; assay type: in vivo, human; settings: before oxymatrine, added to four-drug therapy
Procedure: A person with known history of Mycobacterium avium complex (MAC) infection of the lung and bronchiectasis for several years was treated with clarithromycin, ethambutol, ciprofloxacin and rifabutin for about five years. […] Intravenous amikacin was added following right middle and left lingula lobectomy. In spite of the above therapy, sputum and repeat bronchial washing obtained by bronchoscopy grew MAC within three weeks. A computed tomography scan of the chest remained unchanged except for the post-surgical changes.
Because of persistent positive cultures despite the four drug therapies, the patient was started on oxymatrine, which they tolerated well. […] Sputum became clear in color then resolved. About two months after the start of oxymatrine, the patient had fevers, flu-like symptoms, increase in non-productive cough, bilateral uveitis and elevation of liver enzymes to 3.5 times normal values. The symptoms lasted two weeks and resolved after tapering dose of oxymatrine to 200 mg bid. Liver enzymes returned to normal within six weeks. […] The anti-MAC medications were discontinued after […] of oxymatrine therapy. The dose of oxymatrine was tapered to 100 mg tid at four and a half months of therapy and then stopped after six months of total therapy. The patient felt well at the six month follow-up.

O=C1CCC[C@@H]2[C@H]3CCCN4CCC[C@@H](CN12)[C@@H]34 [matrine]
growth inhibition of coxsackievirus B [1]: growth inhibition
patients with improvement of cardiac function, increase in lymphocyte number and function, and loss of viral markers [2]: more than 90%

CC(C)[C@H](N)C(=O)OCCOCn1cnc2c(=O)[nH]c(N)nc21 [valacyclovir]
response of fatigue and other symptoms [3]: did not respond

gamma interferon
benefit on persistent positive sputum culture for MAC [4]: without significant benefit
